The supplement of paper PMC11208160

Assay: recombinant barcode read abundance after kanamycin selection (control-corrected) (log10(CPM+1)); higher = more efficient recombination; sequences stand for … in AGTGCAGAGAAAATCGGCCAGTTTTCTCTGCCTGCAGTCCGCATGCCGT…AGATTTATGCAGCGGACTGCCTTTCTCCCAAAGTGATAAACCGGACAGTATCATGGACCGGTTTTCCCGGTAATCCGTATTTGCAAGGTTGGTTTCACT; site = the 11-nt target
Description: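 Pooled E. coli target-specificity screen for the IS621 bridge recombinase. Each library plasmid pairs an 11-nt target (CT core) with a bridge RNA whose target-binding loop (9-nt LTG + 4-nt RTG) is reprogrammed; the rest of the 177-nt WT IS621 bridge RNA scaffold is fixed. The plasmid is co-electroporated with a WT donor plasmid; recombinase is induced with 0.1 mM IPTG and recombinants are selected on kanamycin. Recombinant barcodes are sequenced, converted to CPM, averaged over two biological replicates and corrected by the unselected control CPM. Molecule = full bridge RNA written as DNA: LTG = specificity nt 1-9, RTG = reverse complement of specificity nt 8-11, in the WT scaffold.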
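Also: IS621 recombinase and bridge RNA in Escherichia coli cells.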

First: ACTAGTCCTTGGGTTCTAACCTGTTGCAT (site ACTAGTCCTAA)
Second: CGATGGACTTGGGTTCTAACCTGTTGCTG (site AAGCTTGCTAG)
The “recombinant barcode read abundance (log10)” value of the first is higher: 0.239 for the first, 0.0171 for the second.

“ATGGGGTCTTGGGTTCTAACCTGTTGCTT (site AAGGGGTCTAA)” and “CAGATCCCTTGGGTTCTAACCTGTTGCCT (site CCGATCCCTAG)” are within 0.2 log units of each other in “recombinant barcode read abundance (log10)” value: 0.223 for the first, 0.0889 for the second.

“TGGCCCTCTTGGGTTCTAACCTGTTGCTT (site TGGCCCTCTTA)” and “GCGGTTCCTTGGGTTCTAACCTGTTGCCT (site GCCGCTCCTAG)” are within 0.2 log units of each other in “recombinant barcode read abundance (log10)” value: 0.056 for the first, 0.139 for the second.

“GTAGGCGCTTGGGTTCTAACCTGTTGCCT (site GTTGGCGCTAG)” and “CGGAATGCTTGGGTTCTAACCTGTTGCCT (site CGTAATGCTAG)” are within 0.2 log units of each other in “recombinant barcode read abundance (log10)” value: 0.0331 for the first, 0.0616 for the second.

Compared with “TGTCAAGCTTGGGTTCTAACCTGTTGCCT (site TGTCAATCTAG)”, “GTAAGATCTTGGGTTCTAACCTGTTGCAC (site GTAAGATCTGT)” is higher in “recombinant barcode read abundance (log10)” value: 0.295 for the first, 2.12 for the second.

“GAGCCTCCTTGGGTTCTAACCTGTTGCAT (site ACCAGGACTCG)” and “TACGACGCTTGGGTTCTAACCTGTTGCCT (site TAGGACGCTAG)” are within 0.2 log units of each other in “recombinant barcode read abundance (log10)” value: 0.136 for the first, 0.0186 for the second.

Compared with “TGATCCACTTGGGTTCTAACCTGTTGCCT (site AGATCCACTAG)”, “AGCCACACTTGGGTTCTAACCTGTTGCGT (site AGCCACACTAC)” is higher in “recombinant barcode read abundance (log10)” value: 0.0667 for the first, 0.948 for the second.

Going from “CAACTTCCTTGGGTTCTAACCTGTTGCGT (site CGGCTTCCTAC)” to “CTTACTACTTGGGTTCTAACCTGTTGCCA (site CTTACTACTTG)”, the “recombinant barcode read abundance (log10)” value falls from 0.496 to 0.0598.

“ACCAGAGCTTGGGTTCTAACCTGTTGCCT (site ACGAGAGCTAG)” and “AGGGCACCTTGGGTTCTAACCTGTTGCCA (site ATGGCACCTAG)” are within 0.2 log units of each other in “recombinant barcode read abundance (log10)” value: 0.0525 for the first, 0.186 for the second.

Going from “AGGTAACCTTGGGTTCTAACCTGTTGCCT (site AGGTAACCTAG)” to “GACACTGCTTGGGTTCTAACCTGTTGCCT (site GAGACTGCTAG)”, the “recombinant barcode read abundance (log10)” value falls from 0.401 to 0.044.

First: CCGCCTCCTTGGGTTCTAACCTGTTGCGA (site CCGCCTCCTTC)
Second: GTAACCTCTTGGGTTCTAACCTGTTGCCG (site GTAACCTCTCG)
The “recombinant barcode read abundance (log10)” value of the first is lower: 0.616 for the first, 1.48 for the second.

First: CTAAGGGCTTGGGTTCTAACCTGTTGCCA (site CTAAGGGCTTG)
Second: TACGCTCCTTGGGTTCTAACCTGTTGCGT (site TACGCTCCTAC)
The “recombinant barcode read abundance (log10)” value of the first is higher: 0.591 for the first, 0.108 for the second.

First: CAACCGCCTTGGGTTCTAACCTGTTGCCT (site CAACCGGCTAG)
Second: TAGCGGCCTTGGGTTCTAACCTGTTGCCT (site TAACGGCCTAG)
The “recombinant barcode read abundance (log10)” value of the first is lower: 0.402 for the first, 0.651 for the second.

Compared with “TCGTGCCCTTGGGTTCTAACCTGTTGCGT (site CCGTGCCCTAC)”, “CTACTTGCTTGGGTTCTAACCTGTTGCAA (site CTAATTGCTTT)” is higher in “recombinant barcode read abundance (log10)” value: 0.0929 for the first, 0.364 for the second.

First: GAACCACCTTGGGTTCTAACCTGTTGCCT (site GAACCACCTAG)
Second: GCTGGACCTTGGGTTCTAACCTGTTGCAT (site GCTGGACCTAT)
The “recombinant barcode read abundance (log10)” value of the first is lower: 1.75 for the first, 2.18 for the second.

Going from “CTCGACACTTGGGTTCTAACCTGTTGCTG (site CTCTACACTCA)” to “AGTCTCTCTTGGGTTCTAACCTGTTGCTA (site AGTCTCTCTTA)”, the “recombinant barcode read abundance (log10)” value rises from 0.191 to 1.21.

First: AGTAACCCTTGGGTTCTAACCTGTTGCCT (site ACTAACCCTAG)
Second: TCTAAGGCTTGGGTTCTAACCTGTTGCCT (site TCAAAGGCTAG)
The “recombinant barcode read abundance (log10)” value of the first is lower: 0.158 for the first, 0.36 for the second.

“CTTGGACCTTGGGTTCTAACCTGTTGCAG (site CTTCGACCTAT)” and “AAGCTAACTTGGGTTCTAACCTGTTGCCT (site AAGCAAACTAG)” are within 0.2 log units of each other in “recombinant barcode read abundance (log10)” value: 0.00985 for the first, 0.044 for the second.

“GAGTCGCCTTGGGTTCTAACCTGTTGCGG (site GAGTTGCCTCC)” and “TCTAACACTTGGGTTCTAACCTGTTGCCT (site GCTAACACTAG)” are within 0.2 log units of each other in “recombinant barcode read abundance (log10)” value: 0.0886 for the first, 0.0247 for the second.

Going from “CTAACCGCTTGGGTTCTAACCTGTTGCCT (site CTAACCGCTAG)” to “TACGTGTCTTGGGTTCTAACCTGTTGCTA (site TACGTGTCTTA)”, the “recombinant barcode read abundance (log10)” value rises from 1.67 to 2.19.

“CGCGCCACTTGGGTTCTAACCTGTTGCCT (site TAGCAGTCTGC)” and “CCTTGTTCTTGGGTTCTAACCTGTTGCCT (site ACTTGTTCTAG)” are within 0.2 log units of each other in “recombinant barcode read abundance (log10)” value: 0.188 for the first, 0.105 for the second.

Compared with “GTCTATACTTGGGTTCTAACCTGTTGCCA (site TTCTAGACTTG)”, “GTAACCGCTTGGGTTCTAACCTGTTGCCT (site GTAACCGCTAG)” is higher in “recombinant barcode read abundance (log10)” value: 0.0838 for the first, 1.64 for the second.

Going from “TACTTACCTTGGGTTCTAACCTGTTGCCT (site TACTTACCTAG)” to “AGTCGGACTTGGGTTCTAACCTGTTGCAC (site CACGATCCTAA)”, the “recombinant barcode read abundance (log10)” value falls from 0.362 to 0.0668.

Going from “CGAAATGCTTGGGTTCTAACCTGTTGCCT (site CGAAATGCTAG)” to “CAATCTGCTTGGGTTCTAACCTGTTGCCT (site CACTCTGCTAG)”, the “recombinant barcode read abundance (log10)” value falls from 0.798 to 0.0111.

“TCTGTATCTTGGGTTCTAACCTGTTGCCT (site CCTGTATCTAG)” and “TTCCACACTTGGGTTCTAACCTGTTGCGG (site TTCCAAACTCC)” are within 0.2 log units of each other in “recombinant barcode read abundance (log10)” value: 0.0921 for the first, 0.116 for the second.

“TTATGGTCTTGGGTTCTAACCTGTTGCTA (site TCTTGGTCTTA)” and “CCGGATGCTTGGGTTCTAACCTGTTGCCT (site CCGCATGCTAG)” are within 0.2 log units of each other in “recombinant barcode read abundance (log10)” value: 0.257 for the first, 0.117 for the second.

Going from “ACAAGCCCTTGGGTTCTAACCTGTTGCCT (site AAAAGCCCTAG)” to “ACGTTGTCTTGGGTTCTAACCTGTTGCCT (site ACGTTGTCTAG)”, the “recombinant barcode read abundance (log10)” value rises from 0.189 to 0.767.

First: GAGGACTCTTGGGTTCTAACCTGTTGCCT (site GAGGACTCTCG)
Second: GACATACCTTGGGTTCTAACCTGTTGCCT (site GACGTACCTAG)
The “recombinant barcode read abundance (log10)” value of the first is lower: 0.0247 for the first, 0.412 for the second.

“TAGGCTCCTTGGGTTCTAACCTGTTGCAG (site TAGGCTCCTTT)” and “CTGGCGTCTTGGGTTCTAACCTGTTGCCT (site CTGGGGTCTAG)” are within 0.2 log units of each other in “recombinant barcode read abundance (log10)” value: 0.0834 for the first, 0.0321 for the second.

Going from “TGGAATTCTTGGGTTCTAACCTGTTGCTT (site TGGACTTCTAA)” to “AATGCTCCTTGGGTTCTAACCTGTTGCCT (site AATGCTCCTAG)”, the “recombinant barcode read abundance (log10)” value rises from 0.0255 to 0.561.

First: CAGTGCTCTTGGGTTCTAACCTGTTGCCA (site CAATGCTCTAG)
Second: TCTTTACCTTGGGTTCTAACCTGTTGCCT (site TCTTTACCTAG)
The “recombinant barcode read abundance (log10)” value of the first is higher: 0.648 for the first, 0.0757 for the second.

Going from “CTTACTGCTTGGGTTCTAACCTGTTGCCT (site CTTACAGCTAG)” to “TTCATACCTTGGGTTCTAACCTGTTGCTT (site TTCATACCTAA)”, the “recombinant barcode read abundance (log10)” value falls from 0.775 to 0.0848.

First: TCCCATCCTTGGGTTCTAACCTGTTGCCT (site TCCCATTCTAG)
Second: GTATACCCTTGGGTTCTAACCTGTTGCAT (site GTATACCCTAT)
The “recombinant barcode read abundance (log10)” value of the first is lower: 0.592 for the first, 2.34 for the second.
